Experimental findings from PMC10498667 (Chemical Science, 2023) are described below.

Like-named read-outs stand apart in the source and are kept apart here.

One data set deals with T1, Aβ42 (Homo sapiens, UniProt P05067).
T1 construct: purchased Peptide Institute, Inc. (Osaka, Japan)
Kind of data set: Dot blot assay with anti-oligomer (A11) and anti-fibril (OC) antibodies. It is filed as biochemical. The conditions noted are these: flavonoid 200 μM, up to 24 h. An excerpt:
Moreover, to investigate the effects of the flavonoids on the oligomerization and fibrilization of metal-free Aβ42 and metal–Aβ42, we performed the dot blot assay employing anti-oligomer (A11) and anti-fibril (OC) antibodies,[23] as illustrated in Fig. S12. ^† It should be noted that the thioflavin-T (ThT) assay utilized for monitoring the formation of β-sheet-rich aggregates cannot be carried out under our experimental conditions since the absorption windows of 4, 5, and 4b interfere with the excitation and emission wavelengths of ThT (Fig. S13 ^†). […]
Dot Blot Assay. The samples containing Ab42 (100 µM) with or without CuCl2 or ZnCl2 (100 µM) in the absence and presence of flavonoids (200 µM; 1% v/v DMSO) were prepared in 20 mM HEPES, pH 7.4, 150 mM NaCl and incubated for various time points (0, 1, 2, 3, 4, 6, 12, and 24 h). […] The membrane was incubated with a primary antibody [i.e., 6E1026 for Ab species (1:2,000), A1126 for Ab oligomers (1:1,000; Invitrogen, Carlsbad, CA, USA), or OC26 for Ab fibrils (1:2,000; Merch Millipore, Billerica, MA, USA)] in the solution of BSA (2% w/v in TBS-T) for 4 h at room temperature. […] A homemade ECL kit21–23 was used to visualize the results on a ChemiDoc MP Imaging System.
The intensity observed from A11- or OC-detectable Ab species was quantified, relative to that detected from 6E10, by the ImageJ software. […]

Data set [1] concerns the target T2, Electric eel acetylcholinesterase (eeAChE) (Electrophorus electricus, UniProt O42275).
T2 construct: purchased Invitrogen (AChE assay kit)
The data set is described as follows: Fluorometric AChE activity assay. The format is biochemical. An excerpt: Inhibiting the activity of AChE can maintain a proper level of ACh under dysregulated cholinergic conditions.[10,11] Thus, the inhibitory capability of flavonoids against AChE was investigated by a previously reported fluorescent AChE assay with slight modifications.[60] […] The inclusion of three hydroxyl groups on the A ring is critical for controlling the catalytic activity of AChE, as previously reported,[49] whereas the incorporation of a chloro substituent, with three hydroxyl groups, and methoxy moieties instead of hydroxyl groups on the A ring can decrease such inhibitory activity. Flavonoids 2, 3, and 1b over 1 illustrates the importance of the position of hydroxyl groups on the A ring and the isoflavone variation in directing the flavonoids' ability to inhibit the activity of AChE. […]
All experiments were performed in triplicate.
AChE Activity Assay. The AChE inhibitory activity of flavonoids was measured by a fluorometric AChE assay kit (Invitrogen) following the manufacturer ’s protocol with slight modifications.
Electric eel acetylcholinesterase (eeAChE) was dissolved and diluted with a working solution. The eeAChE solution (50 µL) was added into a 96-well plate. Various concentrations of flavonoids were then introduced into the 96-well plate. The final concentrations of flavonoids were as follow: […]
µM). After shaking, the mixture of eeAChE and flavonoids was pre-incubated for 15 min. A reaction mixture containing acetylcholine, an AChE probe, and AbRedTM was added into the 96-well plate to initiate the reaction. The AChE activity was calculated based on the fluorescence intensity (lex/lem = 571/585 nm) of the wells that was detected after 15 min incubation. Data were normalized to the control (no inhibitor). All experiments were performed in triplicate. […]
For the disaggregation studies, Ab (25 µM) was incubated with and without CuCl2 or ZnCl2 (25 µM) for 24 h at 37 °C with constant agitation to generate preformed Ab aggregates. The resultant Ab aggregates were then treated with flavonoids (50 µM) and incubated for additional 24 h with constant agitation. For the additional disaggregation experiments, preformed Ab42 aggregates (25 µM) or Ab42 seeds (10% v/v) with or without metal ions (25 µM for CuCl2 and ZnCl2) were incubated with flavonoids (50 µM) for 24 h with constant agitation. The resultant Ab aggregates were then treated with freshly prepared Ab42

The nature of a further data set: MTT cytotoxicity assay. The format is cell-based. To be noted: human. As to the method: Flavonoid 6 was synthesized following previously reported procedures with modifications.[66–68] […] It should be noted that cell viability was calculated, relative to that of the cells containing an equivalent amount of DMSO.
Cell viability was determined by the MTT assay [MTT = 3-(4,5-dimethylthiazol-2-yl)-2,5-diphenyltetrazolium bromide]. Cells were seeded in a 96-well plate (15,000 cells/100 µL) and treated with the samples {[flavonoid] = 5, 10, 25, 50, and 100 µM (1% v/v DMSO)}. After 24 h incubation, 5Y cells were washed with phosphate buffered saline (PBS; GIBCO). MTT [5 mg/mL in PBS (pH 7.4, GIBCO); 25 µL] was added to each well and the plate was incubated for 4 h at 37 °C. The formazan produced by cells was solubilized using an acidic solution of DMF (pH 4.5, 50% v/v, aq) and sodium dodecyl sulfate (SDS; 20% w/v) overnight at room temperature in the dark. Absorbance was measured at 600 nm by a microplate reader (Molecular Devices). Cell viability, relative to that of the cells containing an equivalent amount of DMSO, was calculated.
The measurements were conducted in triplicate. […]
For orientation: Tetrazolium assays rely on reduction of a dye to a coloured formazan, in cell work by metabolically active cells.

Where [2] appears, read: Cu(II)–Aβ42 or Zn(II)–Aβ42 100 μM.
Setting [3] is: fluorometric assay, eeAChE, read-out: IC50 for AChE inhibition.
The mark [4] stands for this setting: human neuroblastoma 5Y cells, 100 μM flavonoid, 24 h, 5Y cells, relative to DMSO, read-out: cell viability.
Setting [5] is: 100 μM flavonoid, 24 h, 5Y cells, relative to DMSO, read-out: cell viability.

T2 sequence (O42275 24-633): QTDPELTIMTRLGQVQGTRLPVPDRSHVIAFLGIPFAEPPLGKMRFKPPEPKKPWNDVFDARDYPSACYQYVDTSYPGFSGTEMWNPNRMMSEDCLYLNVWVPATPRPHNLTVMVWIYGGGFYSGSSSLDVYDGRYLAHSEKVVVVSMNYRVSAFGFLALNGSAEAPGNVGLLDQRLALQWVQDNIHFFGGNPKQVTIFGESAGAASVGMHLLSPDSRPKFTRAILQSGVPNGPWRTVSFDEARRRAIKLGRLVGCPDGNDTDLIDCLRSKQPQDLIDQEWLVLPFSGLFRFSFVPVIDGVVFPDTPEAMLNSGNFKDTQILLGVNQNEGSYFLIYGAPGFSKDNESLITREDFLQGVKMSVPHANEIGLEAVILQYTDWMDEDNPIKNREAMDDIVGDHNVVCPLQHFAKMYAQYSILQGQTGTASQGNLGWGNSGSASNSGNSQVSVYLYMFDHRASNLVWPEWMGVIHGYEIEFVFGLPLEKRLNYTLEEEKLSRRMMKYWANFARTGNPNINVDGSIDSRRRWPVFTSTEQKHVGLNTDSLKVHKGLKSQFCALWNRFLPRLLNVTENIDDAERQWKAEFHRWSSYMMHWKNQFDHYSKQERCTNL
T1 sequence (P05067 672-713 limits assumed): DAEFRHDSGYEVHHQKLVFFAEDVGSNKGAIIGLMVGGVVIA

On to `O=c1c(-c2ccccc2)coc2cc(O)c(O)c(O)c12` [4b, 5,6,7-trihydroxyisoflavone], for which the “A11- and OC-detectable signals (oligomers and fibrils)” value (from here on “A11- and OC-detectable signals”) on Aβ42 (setting [2]) is “gradually decreased signal intensities”; at Aβ42 (metal-free Aβ42 100 μM) it was “the formation of Aβ oligomers and fibrils were reduced”. The IC50 (as a rule, the concentration at which inhibition is half-maximal) in data set [1] (setting [3]) was 1.4 µM. Also, the viability (commonly the share of living cells, or the viability signal relative to a control) at 24 h, 100 μM in the data set “MTT cytotoxicity assay” (setting [4]) was roughly 70%.
Turning to `O=c1cc(-c2ccccc2)oc2cc(O)cc(O)c12` [compound 1, chrysin], the “A11- and OC-detectable signals” value on Aβ42 (setting [2]) and at Aβ42 (metal-free Aβ42 100 μM) was “not significantly varied” throughout. In addition, in data set [1] (fluorometric assay, eeAChE), the “inhibitory activity against AChE (IC50 could not be obtained)” value is “negligible inhibitory activity”. In addition, in “MTT cytotoxicity assay” (setting [5]), the viability at 24 h, 100 μM was roughly 30%.
In the case of `O=c1cc(-c2ccccc2)oc2cc(O)c(O)cc12` [compound 2, 6,7-dihydroxyflavone], the “A11- and OC-detectable signals” value at Aβ42 (setting [2]) and at Aβ42 (metal-free Aβ42 100 μM) was “not significantly varied” throughout. This compound came in with an IC50 in data set [1] of 4.18 µM. This compound showed a viability at 24 h, 100 μM in the data set “MTT cytotoxicity assay” of roughly 60%.
As to `O=c1cc(-c2ccccc2)oc2ccc(O)c(O)c12` [compound 3, 5,6-dihydroxyflavone], in data set [1] (setting [3]), the half-inhibitory concentration (IC50) came out at 4.51 µM. The viability at 24 h, 100 μM in the data set “MTT cytotoxicity assay” (setting [4]) is roughly 50%.
With `O=c1cc(-c2ccccc2)oc2cc(O)c(O)c(O)c12` [compound 4, baicalein], the “A11- and OC-detectable signals” value on Aβ42 (metal-free Aβ42 100 μM) is “the formation of Aβ oligomers and fibrils were reduced”. Also, the IC50 in data set [1] was determined as 1.95 µM. Moreover, in “MTT cytotoxicity assay” (setting [5]), the viability at 24 h, 100 μM was roughly 70%.
Take `O=c1cc(-c2ccccc2)oc2c(Cl)c(O)c(O)c(O)c12` [compound 5, 8-chlorobaicalein]: the “A11- and OC-detectable signals” value at Aβ42 (metal-free Aβ42 100 μM) was “the formation of Aβ oligomers and fibrils were reduced”. The IC50 in data set [1] (setting [3]) is 12.3 µM. Also, the viability at 24 h, 100 μM in “MTT cytotoxicity assay” (setting [4]) was roughly 60%.
As for `O=c1c(-c2ccc(O)c(O)c2)coc2cc(O)c(O)c(O)c12` [compound 6, 3-(3,4-dihydroxyphenyl)-5,6,7-trihydroxy-4H-chromen-4-one], the “A11- and OC-detectable signals” value on Aβ42 (setting [2]) was “significantly decreased A11- and OC-detectable signal intensities”; on Aβ42 (metal-free Aβ42 100 μM), “significantly decreased A11- and OC-detectable signal intensities”. Besides, in data set [1] (setting [3]), the IC50 was found to be 0.19 µM.
